ChEMBL document CHEMBL3399993, “Design and synthesis of novel quinoline-aminopiperidine hybrid analogues as Mycobacterium tuberculosis DNA gyraseB inhibitors” (Bioorg Med Chem, 2015)
pIC50: −log10 of the molar value. In brackets after ≈: the same amount, converted by molar mass.

What was measured:
[1] = system: Mycobacterium tuberculosis; experiment: Antimycobacterial activity against Mycobacterium tuberculosis H37Rv ATCC 27294 incubated for 7 days by microplate alamar blue assay method; format: functional; conditions: H37Rv ATCC 27294, 168 h
[2] = Cytotoxicity against mouse RAW264.7 cells assessed as inhibition of cell growth at 50 uM after 48 hrs by MTT assay; format: cell-based; conditions: read-out: GI
[3] = molecular target: DNA gyrase subunit A/DNA gyrase subunit B (Mycobacterium tuberculosis (strain ATCC 25618 / H37Rv), UniProt P9WG45+P9WG47); experiment: Inhibition of Mycobacterium tuberculosis GyrA/GyrB using relaxed pBR322 substrate incubated for 30 mins by ethidium bromide staining and electrophoresis based DNA supercoiling assay
Chain of DNA gyrase subunit A/DNA gyrase subunit B (P9WG45 whole entry): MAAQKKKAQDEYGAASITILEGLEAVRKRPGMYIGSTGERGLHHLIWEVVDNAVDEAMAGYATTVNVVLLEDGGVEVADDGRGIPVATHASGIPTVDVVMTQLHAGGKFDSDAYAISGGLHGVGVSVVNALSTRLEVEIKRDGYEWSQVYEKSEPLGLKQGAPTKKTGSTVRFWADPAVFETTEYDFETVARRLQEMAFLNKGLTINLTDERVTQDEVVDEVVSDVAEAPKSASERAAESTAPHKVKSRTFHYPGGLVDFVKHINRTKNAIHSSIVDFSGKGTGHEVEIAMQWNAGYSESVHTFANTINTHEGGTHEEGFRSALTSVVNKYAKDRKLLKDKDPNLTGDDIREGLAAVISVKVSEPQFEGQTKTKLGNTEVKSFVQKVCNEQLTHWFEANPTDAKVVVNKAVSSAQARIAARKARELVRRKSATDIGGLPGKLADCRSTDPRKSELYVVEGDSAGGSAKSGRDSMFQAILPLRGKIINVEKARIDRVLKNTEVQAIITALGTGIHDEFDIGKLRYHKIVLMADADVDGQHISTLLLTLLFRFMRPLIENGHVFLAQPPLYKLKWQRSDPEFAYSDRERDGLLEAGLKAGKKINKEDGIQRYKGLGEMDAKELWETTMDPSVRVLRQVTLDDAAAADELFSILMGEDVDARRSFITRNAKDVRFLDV
Chain of DNA gyrase subunit A/DNA gyrase subunit B (P9WG47 whole entry): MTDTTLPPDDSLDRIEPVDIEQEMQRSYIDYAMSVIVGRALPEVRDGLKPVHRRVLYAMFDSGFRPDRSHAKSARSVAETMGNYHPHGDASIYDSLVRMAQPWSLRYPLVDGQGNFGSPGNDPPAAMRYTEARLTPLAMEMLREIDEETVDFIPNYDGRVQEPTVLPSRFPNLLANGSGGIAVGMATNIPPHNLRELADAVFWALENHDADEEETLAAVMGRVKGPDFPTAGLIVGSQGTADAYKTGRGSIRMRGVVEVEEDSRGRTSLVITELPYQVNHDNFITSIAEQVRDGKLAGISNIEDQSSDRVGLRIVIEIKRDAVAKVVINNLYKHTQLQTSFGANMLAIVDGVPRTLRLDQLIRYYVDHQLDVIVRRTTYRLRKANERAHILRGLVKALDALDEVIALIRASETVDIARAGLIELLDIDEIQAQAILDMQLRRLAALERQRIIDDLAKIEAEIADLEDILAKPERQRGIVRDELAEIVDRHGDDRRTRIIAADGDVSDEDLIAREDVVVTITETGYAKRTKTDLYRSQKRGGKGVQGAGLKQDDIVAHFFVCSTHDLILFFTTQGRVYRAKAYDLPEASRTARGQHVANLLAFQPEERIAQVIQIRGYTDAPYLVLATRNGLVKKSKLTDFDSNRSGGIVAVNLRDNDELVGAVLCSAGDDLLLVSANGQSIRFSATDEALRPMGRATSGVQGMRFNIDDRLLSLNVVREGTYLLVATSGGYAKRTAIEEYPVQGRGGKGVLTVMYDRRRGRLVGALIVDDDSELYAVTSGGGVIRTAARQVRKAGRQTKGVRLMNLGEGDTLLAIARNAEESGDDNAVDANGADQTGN

DNA gyrase subunit B = DNA gyrase subunit B (Mycobacterium smegmatis, UniProt P0C559); experiment: Inhibition of Mycobacterium smegmatis GyrB ATPase activity expressed in Escherichia coli BL21 (DE3) pLysS cells after 100 mins by inorganic phosphate release detection based malachite green reagent assay; parameters: species or system Mycolicibacterium smegmatis
Chain of DNA gyrase subunit B (P0C559 whole entry): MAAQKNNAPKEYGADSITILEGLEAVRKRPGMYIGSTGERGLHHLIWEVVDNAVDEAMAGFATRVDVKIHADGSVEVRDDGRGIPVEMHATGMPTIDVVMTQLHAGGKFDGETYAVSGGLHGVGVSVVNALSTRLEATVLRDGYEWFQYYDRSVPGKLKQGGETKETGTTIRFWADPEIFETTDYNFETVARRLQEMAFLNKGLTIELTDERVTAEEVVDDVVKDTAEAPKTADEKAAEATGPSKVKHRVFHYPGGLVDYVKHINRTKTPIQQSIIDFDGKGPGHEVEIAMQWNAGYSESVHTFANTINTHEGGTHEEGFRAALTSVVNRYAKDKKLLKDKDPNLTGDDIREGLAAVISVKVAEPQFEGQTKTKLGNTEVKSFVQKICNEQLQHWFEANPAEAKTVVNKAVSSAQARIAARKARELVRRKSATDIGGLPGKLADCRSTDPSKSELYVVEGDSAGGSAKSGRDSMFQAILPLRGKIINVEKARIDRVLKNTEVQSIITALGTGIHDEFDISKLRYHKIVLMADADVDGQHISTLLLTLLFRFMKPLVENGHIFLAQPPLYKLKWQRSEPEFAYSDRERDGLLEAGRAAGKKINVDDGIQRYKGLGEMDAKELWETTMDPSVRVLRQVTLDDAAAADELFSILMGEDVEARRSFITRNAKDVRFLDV

Row | SMILES | MIC [1] [µM] | inhibition at 48 h, 50 µM [2] [%] | pIC50 [3] | pIC50 (DNA gyrase subunit B)
1 | COc1ccc2nc(C)cc(N3CCC(NC(=S)Nc4ccccc4)CC3)c2c1 | 3.81 (≈ 1.55 µg/mL) | 41.9 | 6.04 | 5.67
2 | COc1ccc2nc(C)cc(N3CCC(NC(=O)Nc4ccc(C)cc4)CC3)c2c1 | 15.4 (≈ 6.25 µg/mL) | 28.2 | 5.06 | 4.94
3 | COc1ccc2nc(C)cc(N3CCC(NC(=S)Nc4ccc([N+](=O)[O-])cc4)CC3)c2c1 | 1.72 (≈ 0.777 µg/mL) | 24.9 | 6.06 | 5.60
4 | COc1ccc(NC(=O)NC2CCN(c3cc(C)nc4ccc(OC)cc34)CC2)cc1 | 12.6 (≈ 5.29 µg/mL) | 19.6 | 5.23 | 5.03
5 | Cc1ccc(NC(=S)NC2CCN(c3cc(C)nc4ccc(C(F)(F)F)cc34)CC2)cc1 | 31.7 (≈ 14.5 µg/mL) | 19.3 | 5.29 | 4.61
6 | Cc1cc(N2CCC(NC(=O)Nc3ccccc3)CC2)c2ccccc2n1 | 25.8 (≈ 9.31 µg/mL) | 33.9 | 5.01 | 4.76
7 | COc1ccc2nc(C)cc(N3CCC(NC(=S)Nc4ccc(F)cc4)CC3)c2c1 | 14.7 (≈ 6.25 µg/mL) | 29.3 | 5.64 | 5.06
8 | COc1ccc2nc(C)cc(N3CCC(NC(=O)Nc4ccc([N+](=O)[O-])cc4)CC3)c2c1 | 14.7 (≈ 6.4 µg/mL) | 35 | 5.27 | 5.16
9 | Cc1cc(N2CCC(NC(=S)Nc3ccccc3)CC2)c2ccccc2n1 | 16.6 (≈ 6.25 µg/mL) | 11.8 | 5.03 | 4.90
10 | NNC(=O)c1ccncc1 [ISONIAZID] | 0.66 (≈ 0.0905 µg/mL) |  |  | 
11 | COc1c(N2C[C@@H]3CCCN[C@@H]3C2)c(F)cc2c(=O)c(C(=O)O)cn(C3CC3)c12 [MOXIFLOXACIN] | 1.26 (≈ 0.506 µg/mL) |  |  | < 4.30
12 | Cc1cc(N2CCC(NC(=S)Nc3ccc([N+](=O)[O-])cc3)CC2)c2cc(C(F)(F)F)ccc2n1 | 51.1 (≈ 25 µg/mL) | 19.8 | 5.12 | 4.38
13 | Cc1cc(N2CCC(NC(=S)Nc3ccc(F)cc3)CC2)c2cc(F)ccc2n1 | 63.3 (≈ 26.1 µg/mL) | 33.9 | 4.63 | 4.34
14 | Cc1cc(N2CCC(NC(=O)Nc3ccccc3)CC2)c2cc(C(F)(F)F)ccc2n1 | 29.4 (≈ 12.6 µg/mL) | 20.1 | 5.08 | 4.83
15 | Cc1cc(N2CCC(NC(=S)Nc3ccccc3)CC2)c2cc(F)ccc2n1 | 63.3 (≈ 25 µg/mL) | 37.4 | 4.40 | 4.17
16 | Cc1cc(N2CCC(NC(=O)Nc3ccc([N+](=O)[O-])cc3)CC2)c2cc(F)ccc2n1 | 9.52 (≈ 4.03 µg/mL) | 47.9 | 5.67 | 5.17
17 | Cc1cc(N2CCC(NC(=O)Nc3ccc([N+](=O)[O-])cc3)CC2)c2ccccc2n1 | 15.4 (≈ 6.25 µg/mL) | 30.4 | 4.97 | 4.77
18 | Cc1cc(N2CCC(NC(=O)Nc3ccc(F)cc3)CC2)c2cc(F)ccc2n1 | 3.82 (≈ 1.51 µg/mL) | 25.4 | 6.11 | 5.75
19 | Cc1ccc(NC(=S)NC2CCN(c3cc(C)nc4ccc(F)cc34)CC2)cc1 | 67.9 (≈ 27.8 µg/mL) | 23.9 | 4.59 | 4.23
20 | Cc1cc(N2CCC(NC(=O)Nc3ccc([N+](=O)[O-])cc3)CC2)c2cc(C(F)(F)F)ccc2n1 | 52.2 (≈ 24.7 µg/mL) | 48.2 | 4.65 | 4.32
21 | CO[C@H]1/C=C/O[C@@]2(C)Oc3c(C)c(O)c4c(O)c(c(/C=N/N5CCN(C)CC5)c(O)c4c3C2=O)NC(=O)/C(C)=C\C=C\[C@H](C)[C@H](O)[C@@H](C)[C@@H](O)[C@@H](C)[C@H](OC(C)=O)[C@@H]1C [RIFAMPIN] | 0.23 (≈ 0.189 µg/mL) |  |  | 
22 | CO[C@@H]1[C@@H](OC(N)=O)[C@@H](O)[C@H](Oc2ccc3c(O)c(NC(=O)c4ccc(O)c(CC=C(C)C)c4)c(=O)oc3c2C)OC1(C)C [NOVOBIOCIN] | > 200 |  |  | 
